Assay results as given in PMC6341489 (2016).

Tested on: 2-AP-labeled miR-21-hp RNA (RNA, miRNA, 2-aminopurine at 15 (replaces A15)) GGGUUGACUGUUGAAUCUCAUGGCAACCC
Assay: 2-aminopurine fluorescence titration
Settings: 137 mM NaCl, 3 mM KCl; apparent; PBS pH 7.4, 10% DMSO, RT, 2 μM RNA

How did the Kd turn out when `OC(CNc1ccccc1)Cn1c2ccc(Br)cc2c2cc(Br)ccc21` (stereo not shown) was run?
Its Kd is 3.2 ± 0.7 µM.
